System: Caco-2 cell monolayers
Experiment: Caco-2 assay (permeability PappAB, PappBA, efflux ratio)
Type: in vitro ADME
Conditions: 10 μM test compound, pH 7.4
How it was run: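 Confluent Caco-2 monolayers on filter supports, 0.25% BSA in both donor and receiver buffer; transport measured a-b and b-a. After 25-30 min preincubation at 37 °C, samples at 0, 30, 60, 90 min quantified by HPLC/MS/MS. Papp from receiver amount per time, filter area and initial donor concentration; efflux ratio = PappBA/PappAB.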

Q: How did the “Caco PappAB” value (apical to basolateral) turn out when C[C@H](Oc1cc(-n2ccc(C(=O)N[C@H]3CCOC3)n2)nc(-c2noc3c2CCC[C@@]32CCCc3sc(N)c(C#N)c32)n1)[C@@H]1CCCN1C [II-193] was run?
A: 3.7 ×10⁻⁶ cm/s

Q: And the “Caco ER” value (efflux ratio PappBA/PappAB)?
A: 8.1

— patent US20240174690A1, “ANNULATED 2-AMINO-3-CYANO THIOPHENES AND DERIVATIVES FOR THE TREATMENT OF CANCER” (BOEHRINGER INGELHEIM INTERNATIONAL GMBH, priority 2021, published 2024)
